What all share (type): biochemical
The target of experiment [1] is T1, serotonine (5-HT) reuptake in synaptosomes (Rattus norvegicus, UniProt P31652).
T1 construct: in synaptosomes as described in WO 97/16451 (NeuroSearch A/S); from tissue
Put plainly: Inhibition of 5-HT reuptake in synaptosomes. Conditions: 3H-5-HT, read-out: 5-HT-uptake IC50. An excerpt: (§1) Compounds of the invention may be tested for their ability to inhibit reuptake of the monoamines dopamine, noradrenaline and serotonin in synaptosomes e.g. such as described in WO 97/30997 (NeuroSearch NS) or WO 97/16451 (NeuroSearch NS). Based on the balanced activity observed in these tests the compound of the invention is considered useful for the treatment, prevention or alleviation of a disease or a disorder or a condition of a mammal, including a human, which disease, disorder or condition is responsive to inhibition of monoamine neurotransmitter re-uptake in the central nervous system.
(§2) Compounds were tested for their ability to inhibit the reuptake of the monoamine neurotransmitters dopamine (DA) noradrenaline (NA) and serotonine (5-HT) in synaptosomes as described in WO 97/16451 (NeuroSearch A/S).
(§3) The test values are given as IC50 (the concentration (μM) of the test substance which inhibits the specific binding of ^3H-DA, ^3H-NA, or ^3H-5-HT by 50%).

Experiment [2] deals with T2, dopamine (DA) reuptake in synaptosomes (Rattus norvegicus, UniProt P23977).
T2 construct: in synaptosomes as described in WO 97/16451 (NeuroSearch A/S); from tissue
Put plainly: Inhibition of DA reuptake in synaptosomes. Particulars: 3H-DA, read-out: DA-uptake IC50.
Source text: as §1, §2, §3

The target in experiment [3] is T3, noradrenaline (NA) reuptake in synaptosomes (Rattus norvegicus, UniProt Q63380).
T3 construct: in synaptosomes as described in WO 97/16451 (NeuroSearch A/S); from tissue
Put plainly: Inhibition of NA reuptake in synaptosomes. Particulars: 3H-NA, read-out: NA-uptake IC50.
Source text: as §1, §2, §3

As a reminder, the IC50 is the concentration at which inhibition is half-maximal.

T1 sequence (P31652 whole entry): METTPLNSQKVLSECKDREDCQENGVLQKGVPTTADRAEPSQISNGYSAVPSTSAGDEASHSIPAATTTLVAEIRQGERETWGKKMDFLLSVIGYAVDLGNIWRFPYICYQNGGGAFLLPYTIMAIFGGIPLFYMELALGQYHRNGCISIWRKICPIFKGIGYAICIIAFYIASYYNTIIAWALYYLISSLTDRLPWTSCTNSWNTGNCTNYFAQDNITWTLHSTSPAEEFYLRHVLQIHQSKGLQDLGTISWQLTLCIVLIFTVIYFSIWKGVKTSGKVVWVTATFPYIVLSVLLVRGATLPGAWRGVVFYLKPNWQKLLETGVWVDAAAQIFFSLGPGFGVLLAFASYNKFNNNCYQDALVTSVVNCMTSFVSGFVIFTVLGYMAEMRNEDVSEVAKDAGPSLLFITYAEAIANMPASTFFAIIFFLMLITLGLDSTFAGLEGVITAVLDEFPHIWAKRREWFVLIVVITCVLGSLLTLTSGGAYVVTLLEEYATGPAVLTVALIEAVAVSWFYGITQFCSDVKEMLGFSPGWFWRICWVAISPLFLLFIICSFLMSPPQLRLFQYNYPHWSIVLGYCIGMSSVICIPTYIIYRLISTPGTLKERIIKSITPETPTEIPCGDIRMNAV
T2 sequence (P23977 whole entry): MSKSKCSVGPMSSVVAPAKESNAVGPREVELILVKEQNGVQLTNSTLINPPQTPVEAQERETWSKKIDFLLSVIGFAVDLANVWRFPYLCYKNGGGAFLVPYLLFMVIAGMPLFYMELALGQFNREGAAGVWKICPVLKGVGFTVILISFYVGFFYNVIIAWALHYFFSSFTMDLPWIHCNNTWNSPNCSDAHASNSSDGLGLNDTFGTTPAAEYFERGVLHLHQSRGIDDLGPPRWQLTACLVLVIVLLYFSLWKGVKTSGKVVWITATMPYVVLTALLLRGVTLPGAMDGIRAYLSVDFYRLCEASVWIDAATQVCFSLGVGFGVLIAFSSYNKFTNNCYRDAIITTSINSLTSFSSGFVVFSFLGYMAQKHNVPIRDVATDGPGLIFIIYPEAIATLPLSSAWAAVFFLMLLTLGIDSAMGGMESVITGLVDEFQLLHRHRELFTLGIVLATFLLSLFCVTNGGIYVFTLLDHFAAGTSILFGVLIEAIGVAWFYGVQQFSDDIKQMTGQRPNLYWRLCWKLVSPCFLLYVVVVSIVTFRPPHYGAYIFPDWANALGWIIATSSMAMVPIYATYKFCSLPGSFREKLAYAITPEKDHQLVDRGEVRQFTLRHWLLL
T3 sequence (Q63380 1-617): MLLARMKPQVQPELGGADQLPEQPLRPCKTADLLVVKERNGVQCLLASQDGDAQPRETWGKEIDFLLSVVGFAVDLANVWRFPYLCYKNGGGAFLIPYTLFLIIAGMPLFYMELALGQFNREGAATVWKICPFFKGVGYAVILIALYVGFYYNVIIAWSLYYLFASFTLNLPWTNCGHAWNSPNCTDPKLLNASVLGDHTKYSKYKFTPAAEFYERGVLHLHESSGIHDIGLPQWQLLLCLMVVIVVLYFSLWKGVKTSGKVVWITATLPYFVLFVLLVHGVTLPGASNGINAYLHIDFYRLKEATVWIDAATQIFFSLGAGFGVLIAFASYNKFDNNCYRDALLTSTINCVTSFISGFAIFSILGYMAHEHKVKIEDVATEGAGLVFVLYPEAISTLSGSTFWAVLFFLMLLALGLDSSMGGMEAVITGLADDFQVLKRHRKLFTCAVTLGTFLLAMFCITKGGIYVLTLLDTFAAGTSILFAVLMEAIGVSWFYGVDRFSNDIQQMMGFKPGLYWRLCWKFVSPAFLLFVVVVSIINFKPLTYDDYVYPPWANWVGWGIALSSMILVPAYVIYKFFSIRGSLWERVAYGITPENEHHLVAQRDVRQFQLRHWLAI

Take `O=C(Oc1ccc2ccc(=O)oc2c1)N1CC2CCC(C1)N2` [3,8-Diaza-bicyclo[3.2.1]octane-3-carboxylic acid 2-oxo-2H-chromen-7-yl ester]: the IC50 was 27 nM in experiment [1], 92 nM in experiment [2] and 620 nM in experiment [3].
In the case of `CN1C2CCCC1CN(C(=O)Oc1ccc3ccc(=O)oc3c1)C2` [9-Methyl-3,9-diaza-bicyclo[3.3.1]nonane-3-carboxylic acid 2-oxo-2H-chromen-7-yl ester], the figures for the half-maximal inhibitory concentration (IC50) in experiment [1], in experiment [2] and in experiment [3] were 40 nM, 610 nM and 1600 nM, respectively.
Consider `COc1ccc2cc(OC(=O)N3CC4CCCC(C3)N4C)ccc2c1` [9-Methyl-3,9-diaza-bicyclo[3.3.1]nonane-3-carboxylic acid 6-methoxynaphthalen-2-yl ester], for which the figures for the IC50 in experiment [1], in experiment [2] and in experiment [3] were 340 nM, 30 nM and 24 nM, respectively.
For `O=C(Oc1ccc(Cl)c(Cl)c1)N1CC2CCCC(C1)N2` [3,9-Diaza-bicyclo[3.3.1]nonane-3-carboxylic acid 3,4-dichloro-phenyl ester], the IC50 in experiment [1] is 7.8 nM; in experiment [2], > 1000 nM; in experiment [3], 2000 nM.
